Test results taken from patent US20060166995A1, “Piperidine-n-oxide-derivatives” (ALTANA PHARMA AG, priority 2002, published 2006).

Columns and labels:
[1] = system: PDE4; test: Inhibition of PDE4 activity (cytosol from human neutrophils, [3H]cAMP hydrolysis); format: biochemical; settings: 0.5 μM cAMP, Motapizone (1 μM) included to suppress PDE3 activity
Description: Method for Measuring Inhibition of PDE4 Activity
PDE4 activity was determined as described by Thompson et al. (Adv Cycl Nucl Res 10: 69-92, 1979) with some modifications (Bauer and Schwabe, Naunyn-Schmiedeberg's Arch Pharmacol 311: 193-198, 1980). At a final assay volume of 200 μl (96 well microtiter plates) the assay mixture contained 20 mM Tris (pH 7.4), 5 mM MgCl2, 0.5 μM cAMP, [^3H]cAMP (about 30,000 cpm/assay), the test compound and an aliquot of cytosol from human neutrophils which mainly contains PDE4 activity as described by Schudt et al. (Naunyn-Schmiedeberg's Arch Pharmacol 344: 682-690, 1991); the PDE3-specific inhibitor Motapizone (1 μM) was included to suppress PDE3 activity originating from contaminating platelets. Serial dilutions of the compounds were prepared in DMSO and further diluted 1:100 (v/v) in the assays to obtain the desired final concentrations of the inhibitors at a DMSO concentration of 1 % (v/v) which by itself only slightly affected PDE4 activity.
After preincubation for 5 min at 37° C., the reaction was started by the addition of substrate (cAMP) and the assays were incubated for further 15 min at 37° C. 50 μl of 0.2 N HCl was added to stop the reaction and the assays were left on ice for about 10 min. Following incubation with 25 μg 5′-nucleotidase (Crotalus atrox snake venom) for 10 min at 37° C., the assays were loaded on QAE Sephadex A-25 (1 ml bed volume). The columns were eluted with 2 ml of 30 mM ammonium formiate (pH 6.0) and the eluate was counted for radioactivity. Results were corrected for blank values (measured in the presence of denatured protein) which were below 5% of total radioactivity. […] The IC50-values for the compounds according to the invention for the inhibition of the PDE4 activity were determined from the concentration-inhibition curves by nonlinear-regression.
The inhibitory values determined for the compounds according to the invention follow from the following table A, which the numbers of the compounds correspond to the numbers of the examples.

Question: With `COc1ccc(C2=NN(C3CC[N+]([O-])(CC(=O)NC(C)C)CC3)C(=O)C3CC=CCC23)cc1OC` [compound 2, 2-{4-[(4aS,8aR)-4-(3,4-Dimethoxy-phenyl)-1-oxo-4a,5,8,8a-tetrahydro-1H-phthalazin-2yl]-1-oxy-piperidin-1-yl}-N-isopropyl-acetamide] as the molecule, how does the melting point read?
Answer: 130 to 132 °C

Question: What about the “Inhibition of PDE4 acitivity [measured as −logIC50 (mol/l)]” value [1] of the same molecule?
Answer: 9.3

Question: For `COc1ccc(C2=NN(C3CC[N+]([O-])(CC(N)=O)CC3)C(=O)C3CC=CCC23)cc1OC` [compound 1, 2-{4-[(4aS,8aR)-4-(3,4-Dimethoxy-phenyl)-1-oxo-4a,5,8,8a-tetrahydro-1H-phthalazin-2-yl]-1-oxy-piperidin-1-yl}-acetamide], which melting point is on record?
Answer: 159 to 161 °C

Question: What about the “Inhibition of PDE4 acitivity [measured as −logIC50 (mol/l)]” value [1] of the same molecule?
Answer: 8.31

Question: For `COc1ccc(C2=NN(C3CC[N+]([O-])(CC(N)=O)CC3)C(=O)C3CCCCC23)cc1OC` (stereo not drawn) [compound 3], which melting point is on record?
Answer: 176 to 177 °C

Question: And the “Inhibition of PDE4 acitivity [measured as −logIC50 (mol/l)]” value [1]?
Answer: 7.5
